{"source": "patent US9879003B2", "about": "“Host targeted inhibitors of dengue virus and other viruses” (priority 2012, dated 2018)", "key": {"[1]": {"system": "DENV2 virus", "test": "QL-XII-47 biotin test, DENV2 in Huh7 cells, titration in FFU/ml", "assay_type": "cell-based, Dengue virus", "conditions": "treated for 24 or 48 h"}, "[2]": {"system": "DENV2-Fluc (GDV) replicon RNA", "test": "DENV2-Fluc(GDV) mutant replicon translation, luciferase, Huh7 cells", "assay_type": "cell-based, Dengue virus", "conditions": "6 hours post-electroporation; QL compounds 2 μM, cycloheximide 30 μg/mL"}, "[3]": {"system": "DENV2-Fluc(WT) replicon RNA", "test": "DENV2-Fluc(WT) replicon translation, luciferase, Huh7 cells", "assay_type": "cell-based, Dengue virus", "conditions": "6 hours post-electroporation; QL compounds 2 μM, cycloheximide 30 μg/mL"}, "[4]": {"system": "Venezuelan equine encephalitis virus (VEEV)", "assay_type": "cell-based"}, "[5]": {"system": "poliovirus", "assay_type": "cell-based"}, "[6]": {"system": "DENV2 replicon", "assay_type": "cell-based, Dengue virus", "conditions": "2 μM added at 24 hours, read at 72 hours post-electroporation"}, "[7]": {"system": "Junin virus (JUNV)", "assay_type": "cell-based"}, "[8]": {"system": "encephalomyocarditis virus (EMCV) IRES", "assay_type": "cell-based"}, "[9]": {"system": "Japanese Encephalitis virus (JEV)", "assay_type": "cell-based"}, "[10]": {"system": "human cytomegalovirus (HCMV)", "assay_type": "cell-based"}, "[11]": {"system": "DENV2 virus-like particles (VLPs)", "test": "DENV virus-like particle (VLP) expression and secretion, Huh7 cells, Western blot", "assay_type": "cell-based, Dengue virus", "conditions": "3 μM, supernatants 24 hours post-treatment", "method": "The plasmid used for virus-like particles (VLP) production was provided by Stephen Harrison. Briefly, the codon optimized sequence of DENV2-FGA/02 prM-E (Wang et al., PLoS ONE (2009) 4:e8325) was introduced in the pCDNA3.1 vector. To produce VLPs, Huh7 cells were transfected with pCDNA3.1-D2.VLP using Lipofectamine 2000 (Life Technologies 11668-019) according to the manufacturer's instructions. […] The supernatants were collected at 24 hours post-treatment and precipitated for 3 hours at 4° C. by the addition of 0.075% of PEG 8000. The VLPs were pelleted by centrifugation at 10,000 g for 15 min at 4° C. The pellet was suspended in 200 μl of 1×TNE (10 mM Tris-HCl pH 7.5, 2.5 mM EDTA, 50 mM NaCl), loaded over a sucrose cushion (800 μl of 12.5% sucrose in 1×TNE), and centrifuged at 100,000 g for 2 h at 4° C. The supernatants were discarded, and the purified VLPs were suspended in 50 μl of 1×TNE. 25 μl of purified VLPs were analyzed for DENV2 E protein expression by Western blotting using 4G2 antibody. An equal amount of purified VLPs was loaded on a SDS-PAGE and submitted to Coomassie staining to control for equal loading of the VLPs-enriched supernatants. Steady state expression of DENV2 E protein in the cell lysates was analyzed by Western blotting using 4G2 antibody."}, "[12]": {"system": "Vero"}, "[13]": {"system": "Rift Valley fever virus (RVFV)", "assay_type": "cell-based"}, "[14]": {"system": "DENV1 WP74", "test": "Yield reduction assay, DENV1-WP74 in Huh7 cells, FFA in Vero cells", "conditions": "Huh7 MOI 1, FFA in Vero cells"}, "[15]": {"system": "Junin virus", "assay_type": "cell-based"}, "[16]": {"system": "DENV2 New Guinea C (DENV2-NGC)", "test": "Viral yield reduction assay, DENV2-NGC in Huh7 cells, titration by focus forming assay (FFA)", "assay_type": "cell-based, Dengue virus"}, "[17]": {"system": "influenza virus", "assay_type": "cell-based"}, "[18]": {"system": "recombinant viral particles (RVP) with dengue structural proteins and West Nile virus reporter RNA", "test": "Single-cycle reporter viral particle (RVP) assay, Renilla luciferase, Huh7 cells", "assay_type": "cell-based", "conditions": "entry and translation of subgenomic replicon RNA"}, "[19]": {"system": "BHK21"}, "[20]": {"system": "vesicular stomatitis virus (VSV)", "assay_type": "cell-based"}, "[21]": {"system": "Ebola glycoprotein (EBOV)", "assay_type": "cell-based, Ebola virus"}, "[22]": {"system": "293"}, "[23]": {"system": "VSV pseudotyped with Ebola glycoprotein (EboV)", "assay_type": "cell-based, vesicular stomatitis virus"}, "[24]": {"system": "3T3"}, "[25]": {"system": "Hela"}, "[26]": {"system": "VSV pseudotyped with rabies virus glycoprotein (RABV)", "assay_type": "cell-based, vesicular stomatitis virus"}, "[27]": {"system": "Marburg virus (MARV)", "assay_type": "cell-based"}, "[28]": {"system": "DENV3 THD3", "test": "Yield reduction assay, DENV3-THD3 in Huh7 cells, FFA in Vero cells", "conditions": "Huh7 MOI 1, FFA in Vero cells"}, "[29]": {"system": "Lassa fever virus (LASV)", "assay_type": "cell-based"}, "[30]": {"system": "Kunjin virus", "test": "Kunjin virus yield reduction in Huh7 cells, plaque assay in BHK21 cells", "assay_type": "cell-based", "conditions": "2 μM"}, "[31]": {"system": "vaccinia virus", "assay_type": "cell-based"}, "[32]": {"system": "poliovirus Type 1 (PV1)", "assay_type": "cell-based"}, "[33]": {"system": "VSV", "assay_type": "cell-based, vesicular stomatitis virus"}, "[34]": {"system": "DENV4 TVP360", "test": "Yield reduction assay, DENV4-TVP360 in Huh7 cells, FFA in Vero cells", "conditions": "Huh7 MOI 1, FFA in Vero cells"}, "[35]": {"system": "herpes simplex virus 1 (HSV-1)", "assay_type": "cell-based"}, "[36]": {"system": "Huh7 cells", "test": "CellTiter-Glo luminescent cell viability assay (cytotoxicity)", "assay_type": "cell-based", "conditions": "20 μM, the highest concentration tested", "method": "As a positive control for cytotoxicity, some wells were supplemented with 0.1% saponin. The plates were incubated for 24 hours at 37° C., and the cell cytotoxicity was measured following the instructions of the CellTiter-Glo Luminescent cell viability assay (Promega G7570)."}, "[37]": {"system": "DENV2-NGC genomic RNA", "test": "Time course of intracellular DENV genomic RNA by qRT-PCR and in situ hybridization", "conditions": "2 μM, MOI 1, normalized to GAPDH"}, "[38]": {"system": "DENV2 virus", "test": "DENV2 viral production time course in Huh7 cells (FFU/ml, RTqPCR, Western blot)", "assay_type": "cell-based, Dengue virus", "conditions": "4 μM"}, "[39]": {"target": "DENV RNA-dependent polymerase (Dengue virus type 2, UniProt P14340)", "conditions": "Wu et al. 2002; cited from earlier work"}}, "note": "Entries after “also recorded” stand apart in the source; their conditions may differ. Read-outs that look alike come from different tables or passages of the source.", "data": [{"smiles": "CN(C/C=C/C(=O)N1CCc2ccc(-n3c(=O)ccc4cnc5ccc(-c6cnn(C)c6)cc5c43)cc21)CCNC(=O)NCCOCCOCCOCCNC(=O)CCCC1SCC2NC(=O)NC21", "note": "(stereo not drawn) [QL-XII-47-biotin]", "values": [{"measurement": "inhibitory activity against dengue virus", "setting": "[1]", "result": "significantly reduced inhibitory activity"}]}, {"smiles": "C[C@@H]1C[C@@H]([C@H](O)CC2CC(=O)NC(=O)C2)C(=O)[C@@H](C)C1", "note": "[CHX, cycloheximide, reference compound]", "values": [{"measurement": "luciferase activity (translation of input RNA)", "setting": "[2]", "result": "Reduced luciferase activity"}, {"measurement": "luciferase activity (translation of input RNA)", "setting": "[3]", "result": "Reduced luciferase activity"}]}, {"smiles": "C=CC(=O)N1CCc2ccc(-n3c(=O)ccc4cnc5ccc(-c6cnn(C)c6)cc5c43)cc21", "note": "[QL-XII-47]", "values": [{"measurement": "inhibitory activity", "setting": "[4]", "result": "inhibitory activity"}, {"measurement": "inhibition of infection and viral gene expression", "setting": "[5]", "result": "inhibits"}, {"measurement": "activity on electroporated subgenomic reporter replicon", "setting": "[6]", "result": "does not have activity"}, {"measurement": "inhibitory activity", "setting": "[7]", "result": "inhibitory activity"}, {"measurement": "EMCV IRES-dependent translation", "setting": "[8]", "result": "reduces translation; also recorded: inhibited"}, {"measurement": "inhibition of cytopathic effects", "setting": "[9]", "result": "modest inhibitor"}, {"measurement": "inhibition of reporter HCMV infection", "setting": "[10]", "result": "inhibits"}, {"measurement": "yield of virus-like particles (VLPs)", "setting": "[11]", "result": "did not inhibit"}, {"measurement": "cytotoxicity", "setting": "[12]", "result": "not observed"}, {"measurement": "inhibitory activity", "setting": "[13]", "result": "inhibitory activity"}, {"measurement": "activity against strain", "setting": "[14]", "result": "potent activity"}, {"measurement": "inhibition of cytopathic effects", "setting": "[15]", "result": "modest inhibitor"}, {"measurement": "luciferase activity (translation of input RNA)", "setting": "[2]", "result": "Reduced luciferase activity"}, {"measurement": "activity against strain", "setting": "[16]; DENV2 NGC, Huh7 MOI 1, FFA in Vero cells", "result": "potent activity"}, {"measurement": "EC90", "setting": "[16]; Dengue virus, DENV2, Huh-7", "result": 0.4, "unit": "µM"}, {"measurement": "decrease in DENV2 New Guinea C (DENV2-NGC) yield / drop in viral titer", "setting": "[16]; at single-digit micromolar concentrations", "result": "> 3", "unit": "log10 unit"}, {"measurement": "inhibition of DENV after pretreatment of cells", "setting": "[16]; cells pretreated for 6 hours and washed prior to infection", "result": "potent inhibition"}, {"measurement": "time of addition giving maximal anti-DENV effect", "setting": "[16]; time-of-addition experiment", "result": "0-3 hours post-infection"}, {"measurement": "activity against virus", "setting": "[17]", "result": "no activity"}, {"measurement": "inhibition in single-cycle reporter virus assay", "setting": "[18]", "result": "potent inhibitory activity"}, {"measurement": "cytotoxicity", "setting": "[19]", "result": "not observed"}, {"measurement": "inhibition of VSV", "setting": "[20]", "result": "inhibited"}, {"measurement": "inhibitory activity", "setting": "[21]", "result": "inhibitory activity"}, {"measurement": "cytotoxicity", "setting": "[22]", "result": "single-digit micromolar cytotoxicity"}, {"measurement": "inhibition of infection", "setting": "[23]", "result": "inhibits infection"}, {"measurement": "cytotoxicity", "setting": "[24]", "result": "not observed"}, {"measurement": "cytotoxicity", "setting": "[25]", "result": "single-digit micromolar cytotoxicity"}, {"measurement": "inhibition of infection", "setting": "[26]", "result": "inhibits infection"}, {"measurement": "inhibitory activity", "setting": "[27]", "result": "inhibitory activity"}, {"measurement": "activity against strain", "setting": "[28]", "result": "potent activity"}, {"measurement": "inhibitory activity", "setting": "[29]", "result": "inhibitory activity"}, {"measurement": "reduction in Kunjin virus yield", "setting": "[30]", "result": "greater than 10 fold"}, {"measurement": "luciferase activity (translation of input RNA)", "setting": "[3]", "result": "Reduced luciferase activity"}, {"measurement": "activity against virus", "setting": "[31]", "result": "no activity"}, {"measurement": "inhibition of PV1", "setting": "[32]", "result": "inhibited"}, {"measurement": "inhibition of infection", "setting": "[33]", "result": "inhibits infection"}, {"measurement": "activity against strain", "setting": "[34]", "result": "potent activity"}, {"measurement": "inhibition of infection and plaque formation", "setting": "[35]", "result": "inhibits"}, {"measurement": "plaques detected", "setting": "[35]", "result": "no plaques were detected"}, {"measurement": "cytotoxicity", "setting": "[36]", "result": "no cytotoxicity; also recorded: not observed"}, {"measurement": "DENV genomic RNA copy number over time", "setting": "[37]", "result": "relatively unchanged copy number"}, {"measurement": "expression of DENV proteins NS3 and core (Western blot)", "setting": "[38]", "result": "reduced steady-state expression"}, {"measurement": "DENV2 viral production (FFU/ml, viral count)", "setting": "[38]; after about 12 hours of infection", "result": "inhibited"}]}, {"smiles": "C=CC(=O)N1CCC[C@@H](n2nc(-c3ccc(Oc4ccccc4)cc3)c3c(N)ncnc32)C1", "note": "[PCI-32765, reference compound]", "values": [{"measurement": "effect on DENV yield", "setting": "[16]; added 1 hour post-infection, MOI 1, FFA at 24 h post-infection", "result": "not inhibited; also recorded: no effect"}]}, {"smiles": "C=CC(=O)Nc1cc(-n2c(=O)ccc3cnc4ccc(-c5cnn(C)c5)cc4c32)ccc1C", "note": "[QL-XII-56]", "values": [{"measurement": "inhibitory activity", "setting": "[4]", "result": "inhibitory activity"}, {"measurement": "inhibitory activity", "setting": "[7]", "result": "inhibitory activity"}, {"measurement": "EMCV IRES-dependent translation", "setting": "[8]", "result": "inhibited"}, {"measurement": "inhibitory activity", "setting": "[13]", "result": "inhibitory activity"}, {"measurement": "luciferase activity (translation of input RNA)", "setting": "[2]", "result": "Reduced luciferase activity"}, {"measurement": "inhibition of VSV", "setting": "[20]", "result": "inhibited"}, {"measurement": "inhibitory activity", "setting": "[21]", "result": "inhibitory activity"}, {"measurement": "inhibitory activity", "setting": "[27]", "result": "inhibitory activity"}, {"measurement": "inhibitory activity", "setting": "[29]", "result": "inhibitory activity"}, {"measurement": "luciferase activity (translation of input RNA)", "setting": "[3]", "result": "Reduced luciferase activity"}, {"measurement": "inhibition of PV1", "setting": "[32]", "result": "inhibited"}]}, {"smiles": "C[C@@]1(O)[C@H](O)[C@@H](CO)O[C@H]1n1ccc2c(N)ncnc21", "note": "[Compound 7-DMA]", "values": [{"measurement": "EC50", "setting": "[39]", "result": 15, "unit": "µM"}]}, {"smiles": "Nc1nc2c(ncn2COCCO)c(=O)[nH]1", "note": "[acyclovir, reference compound]", "values": [{"measurement": "plaques detected", "setting": "[35]; 8 μM", "result": "no plaques were detected"}]}]}
